According to patent US20230024302A1, “2,3,5-TRISUBSTITUTED PYRAZOLO[1,5-A]PYRIMIDINE COMPOUNDS” (Arcus Biosciences, Inc., priority 2019, published 2023):
Read-outs that look alike come from different tables or passages of the source.

Assays:
[1] = biological target: T1, PI3Kγ (Homo sapiens, UniProt P48736); assay: PI3Kγ cellular assay in THP-1 cells (AKT pS473 AlphaLISA); format: cell-based
T1 construct: host or cells: THP-1
Method in brief: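 Serum-starved THP-1 cells (1.8×10^5/well, serum-free DMEM) treated with compounds from 4 nM to 30 μM in 2% DMSO, then stimulated and lysed.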

[2] = biological target: T2, PI3Kγ (p120γ) (Homo sapiens, UniProt P48736); assay: Inhibition of PI3K kinase activity (ADP Glo), PI3Kγ; settings: read-out: biochemical potency (PI3Kγ IC50)
T2 construct: purchased Promega V1761
T2 sequence (P48736 whole entry): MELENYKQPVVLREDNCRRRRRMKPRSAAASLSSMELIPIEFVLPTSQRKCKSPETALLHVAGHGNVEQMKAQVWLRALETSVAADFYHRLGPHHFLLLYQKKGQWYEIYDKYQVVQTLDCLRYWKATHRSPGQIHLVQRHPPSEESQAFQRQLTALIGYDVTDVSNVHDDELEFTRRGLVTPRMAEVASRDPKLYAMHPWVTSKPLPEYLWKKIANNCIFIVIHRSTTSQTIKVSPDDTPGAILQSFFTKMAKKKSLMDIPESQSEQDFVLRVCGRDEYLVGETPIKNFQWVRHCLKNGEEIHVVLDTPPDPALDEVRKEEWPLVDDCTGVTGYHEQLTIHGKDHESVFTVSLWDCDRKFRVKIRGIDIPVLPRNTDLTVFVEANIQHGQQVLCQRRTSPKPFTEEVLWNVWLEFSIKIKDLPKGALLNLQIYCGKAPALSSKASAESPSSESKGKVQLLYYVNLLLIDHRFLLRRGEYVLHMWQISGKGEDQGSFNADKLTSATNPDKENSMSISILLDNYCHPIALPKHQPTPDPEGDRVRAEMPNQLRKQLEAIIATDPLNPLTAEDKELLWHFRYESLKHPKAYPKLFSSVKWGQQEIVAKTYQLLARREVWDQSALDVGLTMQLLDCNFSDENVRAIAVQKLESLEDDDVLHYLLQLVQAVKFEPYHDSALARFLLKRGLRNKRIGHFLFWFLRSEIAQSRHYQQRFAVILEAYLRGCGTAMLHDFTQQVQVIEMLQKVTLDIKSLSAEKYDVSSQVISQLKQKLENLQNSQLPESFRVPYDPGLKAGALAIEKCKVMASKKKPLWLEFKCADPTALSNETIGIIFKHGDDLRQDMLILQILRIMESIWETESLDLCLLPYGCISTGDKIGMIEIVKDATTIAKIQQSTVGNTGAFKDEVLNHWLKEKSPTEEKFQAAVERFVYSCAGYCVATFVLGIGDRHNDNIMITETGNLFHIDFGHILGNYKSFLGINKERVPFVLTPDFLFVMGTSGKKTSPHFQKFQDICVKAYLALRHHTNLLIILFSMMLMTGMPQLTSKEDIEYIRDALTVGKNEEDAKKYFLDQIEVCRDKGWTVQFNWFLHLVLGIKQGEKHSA
Method in brief: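 Recombinant p120γ (8 nM, 2× stock) was preincubated with compound for 1 h at rt in HEPES pH 7.4, NaCl, MgCl2 and 0.05% BSA. Reaction was started with PIP2 (0.1 mg/ml, 2×) and ATP (50 μM, 2×) and ran 60 min at rt. ADP formed was read by ADP-Glo luminescence, and IC50 came from a 4-parameter fit.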

[3] = Table 1, rhMCP-1 stimulated AKT pS473, read-out: cellular potency (PI3Kγ IC50)
[4] = Table 2, rhMCP-1 stimulated AKT pS473, read-out: cellular potency (PI3Kγ IC50)

T1 sequence (P48736 whole entry): as above

Row | Compound | IC50 [1, 3] | IC50 ([2]; Table 1, p120γ) | IC50 [1, 4] | IC50 ([2]; Table 2, p120γ) | other results
1 | C[C@@H](C1CC1)N1Cc2cc(-c3ccn4nc(N)c(C(=O)NC5CC5)c4n3)cc(S(=O)(=O)N(C)C)c2C1=O [Example 144, 2-Amino-N-cyclopropyl-5-{2-[(1S)-1-cyclopropylethyl]-7-(dimethylsulfamoyl)-1-oxo-2,3-dihydro-1H-isoindol-5-yl}pyrazolo[1,5-a]pyrimidine-3-carboxamide] | < 100 nM | < 100 nM |  |  | 
2 | Cc1cc(-c2ccn3nc(N)c(C(=O)NC4CS(=O)(=O)C4)c3n2)cc2c1C(=O)N([C@@H](C)C1CC1)C2 [Example 241] |  |  | 100 to 1000 nM | < 100 nM | 
3 | C[C@@H](C1CC1)N1Cc2cc(-c3ccn4nc(N)c(C(=O)N[C@@H]5COC[C@H]5O)c4n3)cc(NS(C)(=O)=O)c2C1=O [Example 88, 2-Amino-5-{2-[(1S)-1-cyclopropylethyl]-7-methanesulfonamido-1-oxo-2,3-dihydro-1H-isoindol-5-yl}-N-[(3R,4S)-4-hydroxyoxolan-3-yl]pyrazolo[1,5-a]pyrimidine-3-carboxamide] | < 100 nM | < 100 nM |  |  | 
4 | Cc1cc(-c2ccn3nc(N)c(C(=O)N[C@@H](C)c4ccncc4)c3n2)cc2c1C(=O)N([C@@H](C)C1CC1)C2 [Example 173] |  |  | 100 to 1000 nM | < 100 nM | 
5 | C[C@@H](C1CC1)N1Cc2cc(-c3ccn4nc(N)c(C(=O)NC5CC5)c4n3)cc(N3CC[C@H](O)C3)c2C1=O [Example 152, 2-Amino-N-cyclopropyl-5-{2-[(1S)-1-cyclopropylethyl]-7-[(3S)-3-hydroxypyrrolidin-1-yl]-1-oxo-2,3-dihydro-1H-isoindol-5-yl}pyrazolo[1,5-a]pyrimidine-3-carboxamide] | < 100 nM | < 100 nM |  |  | 
6 | Cc1cc(-c2ccn3nc(N)c(C(=O)N[C@H]4c5ccccc5C[C@H]4O)c3n2)cc2c1C(=O)N([C@@H](C)C1CC1)C2 [Example 284] |  |  | > 1000 nM | < 100 nM | 
7 | Cc1cc(-c2ccn3nc(N)c(C(=O)NC[C@H]4CCOC4)c3n2)cc2c1C(=O)N([C@@H](C)C1CC1)C2 [Example 257] |  |  | 100 to 1000 nM | < 100 nM | 
8 | C[C@@H](C1CC1)N1Cc2cc(-c3ccn4nc(N)c(C(=O)Nc5ccc(CC(F)(F)F)nc5)c4n3)cc(C(F)(F)F)c2C1=O [Example 354] |  |  |  |  | IC50 ([1]; Table 3, rhMCP-1 stimulated AKT pS473, read-out: cellular potency (PI3Kγ IC50)): 100 to 1000 nM; IC50 ([2]; Table 3, p120γ): < 100 nM
9 | Cc1nn(C)cc1NC(=O)c1c(N)nn2ccc(-c3cc4c(c(NS(C)(=O)=O)c3)C(=O)N([C@@H](C)C3CC3)C4)nc12 [Example 107, 2-Amino-5-{2-[(1S)-1-cyclopropylethyl]-7-methanesulfonamido-1-oxo-2,3-dihydro-1H-isoindol-5-yl}-N-(1,3-dimethyl-1H-pyrazol-4-yl)pyrazolo[1,5-a]pyrimidine-3-carboxamide] | < 100 nM | < 100 nM |  |  | 
10 | C[C@@H](C1CC1)N1Cc2cc(-c3ccn4nc(N)c(C(=O)N[C@H]5CC[C@H](C(C)(C)O)CC5)c4n3)cc(C(F)(F)F)c2C1=O [Example 61, 2-Amino-5-(2-((S)-1-cyclopropylethyl)-1-oxo-7-(trifluoromethyl)isoindolin-5-yl)-N-(trans-4-(2-hydroxypropan-2-yl)cyclohexyl)pyrazolo[1,5-a]pyrimidine-3-carboxamide] | < 100 nM | < 100 nM |  |  | 
11 | Cc1cc(NC(=O)c2c(N)nn3ccc(-c4cc(C)c5c(c4)CN([C@@H](C)C4CC4)C5=O)nc23)ccn1 [Example 297] |  |  | 100 to 1000 nM | < 100 nM | 
12 | Cc1cc(-c2ccn3nc(N)c(C(=O)NC4CC4)c3n2)cc2c1C(=O)N(C(C)(C)CO)C2 [Example 316] |  |  | 100 to 1000 nM | < 100 nM | 
13 | Cc1cc(-c2ccn3nc(N)c(C(=O)NC4(C#N)CCC4)c3n2)cc2c1C(=O)N([C@@H](C)C1CC1)C2 [Example 255] |  |  | 100 to 1000 nM | < 100 nM | 
14 | Cc1cc(-c2ccn3nc(N)c(C(=O)NC4CC4)c3n2)cc2c1C(=O)N([C@@H](C)C1CC1)C2 [Example 208] |  |  | 100 to 1000 nM | < 100 nM | 
15 | Cc1cc(-c2ccn3nc(N)c(C(=O)NCC(F)(F)F)c3n2)cc2c1C(=O)N([C@@H](C)C1CC1)C2 [Example 222] |  |  | 100 to 1000 nM | < 100 nM | 
